# Experimental data: US20250135006A1, “AMPHIPHILIC TLR7/8 ADJUVANTS AND USES THEREOF” (Pfizer Inc., priority 2023, published 2025)
# Columns and labels:
# [1] = biological target: T1, human toll like receptor 7 (hTLR7) (Homo sapiens, UniProt Q9NYK1); test: hTLR7 in-vitro functional assay (HEK-Blue hTLR7 SEAP reporter); format: cell-based; settings: HEK-Blue hTLR7 cells, overnight incubation
# T1 construct: host or cells: HEK293 (HEK-Blue hTLR7)
# T1 sequence (Q9NYK1 27-1049): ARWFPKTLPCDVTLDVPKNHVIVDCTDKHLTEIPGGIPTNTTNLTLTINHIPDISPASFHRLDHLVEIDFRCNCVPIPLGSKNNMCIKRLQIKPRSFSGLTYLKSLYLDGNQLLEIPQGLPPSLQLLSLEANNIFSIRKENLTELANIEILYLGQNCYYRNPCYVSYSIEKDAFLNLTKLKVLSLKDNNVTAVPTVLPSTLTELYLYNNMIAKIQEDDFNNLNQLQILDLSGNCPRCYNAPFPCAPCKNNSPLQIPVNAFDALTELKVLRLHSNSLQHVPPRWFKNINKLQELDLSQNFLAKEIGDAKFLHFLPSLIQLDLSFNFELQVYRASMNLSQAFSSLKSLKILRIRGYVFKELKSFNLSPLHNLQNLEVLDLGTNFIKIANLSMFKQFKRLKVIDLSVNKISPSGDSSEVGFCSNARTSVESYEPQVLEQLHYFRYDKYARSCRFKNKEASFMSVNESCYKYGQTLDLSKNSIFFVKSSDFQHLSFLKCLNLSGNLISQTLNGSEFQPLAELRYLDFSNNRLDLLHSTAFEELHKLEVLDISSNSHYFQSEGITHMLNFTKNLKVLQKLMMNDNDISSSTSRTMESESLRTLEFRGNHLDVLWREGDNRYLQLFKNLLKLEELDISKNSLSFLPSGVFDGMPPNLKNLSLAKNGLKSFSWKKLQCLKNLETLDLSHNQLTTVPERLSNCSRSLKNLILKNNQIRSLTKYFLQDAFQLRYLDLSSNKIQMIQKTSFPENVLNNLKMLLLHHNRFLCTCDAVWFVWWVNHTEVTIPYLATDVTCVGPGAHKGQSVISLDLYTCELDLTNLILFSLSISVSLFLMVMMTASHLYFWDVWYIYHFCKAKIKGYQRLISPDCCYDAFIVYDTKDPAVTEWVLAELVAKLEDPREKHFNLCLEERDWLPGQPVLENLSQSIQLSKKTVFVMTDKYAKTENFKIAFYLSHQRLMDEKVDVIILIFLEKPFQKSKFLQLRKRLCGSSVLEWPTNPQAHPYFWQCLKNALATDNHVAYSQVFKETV
# Description: (§1) To determine the ability of test compounds to activate the human toll like receptor 7 (hTLR7) or human toll like receptor 8 (hTLR8), cell-based reporter systems were utilized. HEK293 cells stably overexpressing either hTLR7 or hTLR8 along with a reporter gene containing an optimized secreted embryonic alkaline phosphatase gene (SEAP), under the control of the IFN-b minimal promoter fused to five NF-kB and AP-1-binding sites, were obtained from Invivogen (HEK-Blue™ hTLR7, cat #Hkb-htlr7; HEK-Blue™ hTLR8, cat #Hkb-htlr8). Stimulation of hTLR7 or hTLR8 in these cells activates NF-kB and AP-1 and induces the production of SEAP which can be quantified using an alkaline phosphatase detection reagent.
# (§2) On day one of the assay, compounds were prepared using 11-point half-log serial dilutions from a 10 mM DMSO stock solution and 50 nL was spotted into 384-well plates (PerkinElmer, cat #6007480). Positive and negative controls were also spotted within the assay plate and were used to determine percent effect during the analysis process. After resuspension in DMEM assay media containing FBS heat inactivated (10%), Glutamax (2 mM) and Penicillin/Streptomycin, 10,000 cells/20 ul/well were added to previously prepared compound plates. Plates were incubated overnight (16-20 hrs) at 37° C. in a 5% CO2 environment. Prewetted Microclime lids (Labcyte, LLS-0310) were used to prevent evaporation. On day two of the assay, QUANTI-Blue™ detection reagent was prepared by reconstituting QUANTI-Blue™ powder (InvivoGen, Rep-qb1) with 100 ml of sterile water and allowed to equilibrate to 37° C. for 15 minutes. 20 ul of QUANTI-Blue™ detection reagent was added to each well and plates were incubated at room temperature for 180 min. At the end of the incubation, plates were read on an Envision (Perkin Elmer) plate reader capturing absorbance at 650 nm.
# (§3) Using Positive (tool compound) and Negative (DMSO) controls, the percent (%) effect was calculated for each sample using the following equation: […]
# (§4) The % effect at each concentration of compound was calculated utilizing the ABase software suite (IBDS) and was relative to the amount of SEAP produced in the positive and negative control wells contained within each assay plate. The concentrations and % effect values for test compounds were fit using a 4-parameter logistic model in ABase and the concentration of compound that produced 50% response (EC50) was calculated.
# [2] = biological target: T2, human toll like receptor 8 (hTLR8) (Homo sapiens, UniProt Q9NR97); test: hTLR8 in-vitro functional assay (HEK-Blue hTLR8 SEAP reporter); format: cell-based; settings: HEK-Blue hTLR8 cells, overnight incubation
# T2 construct: host or cells: HEK293 (HEK-Blue hTLR8)
# T2 sequence (Q9NR97 27-1041): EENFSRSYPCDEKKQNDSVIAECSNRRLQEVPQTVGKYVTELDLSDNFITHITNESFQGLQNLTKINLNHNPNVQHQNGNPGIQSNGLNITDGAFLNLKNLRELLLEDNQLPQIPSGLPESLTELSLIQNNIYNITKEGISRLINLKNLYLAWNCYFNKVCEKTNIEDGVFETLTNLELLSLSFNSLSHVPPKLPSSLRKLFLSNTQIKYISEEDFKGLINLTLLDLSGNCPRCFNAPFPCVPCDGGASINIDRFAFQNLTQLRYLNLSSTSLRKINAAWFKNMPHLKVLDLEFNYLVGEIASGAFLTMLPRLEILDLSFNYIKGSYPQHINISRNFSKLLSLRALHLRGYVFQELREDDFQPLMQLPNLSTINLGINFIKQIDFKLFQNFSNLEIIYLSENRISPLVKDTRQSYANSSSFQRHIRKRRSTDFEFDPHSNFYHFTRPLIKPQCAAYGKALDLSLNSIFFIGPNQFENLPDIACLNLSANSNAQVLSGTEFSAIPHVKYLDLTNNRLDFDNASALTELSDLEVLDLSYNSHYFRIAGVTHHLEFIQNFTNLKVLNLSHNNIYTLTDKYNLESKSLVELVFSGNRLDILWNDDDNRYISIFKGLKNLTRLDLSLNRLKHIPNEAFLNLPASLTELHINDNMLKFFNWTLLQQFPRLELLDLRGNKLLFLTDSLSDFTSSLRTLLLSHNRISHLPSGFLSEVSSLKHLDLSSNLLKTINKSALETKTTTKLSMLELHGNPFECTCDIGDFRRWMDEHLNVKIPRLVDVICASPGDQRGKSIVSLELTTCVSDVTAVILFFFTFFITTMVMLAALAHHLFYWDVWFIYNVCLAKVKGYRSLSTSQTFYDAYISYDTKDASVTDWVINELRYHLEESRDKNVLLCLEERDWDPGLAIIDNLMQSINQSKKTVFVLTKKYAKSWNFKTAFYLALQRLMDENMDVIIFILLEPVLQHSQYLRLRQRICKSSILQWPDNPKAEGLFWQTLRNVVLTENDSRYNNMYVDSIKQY
# Description: as §1, §2, §3, §4
Compound,EC50 [1],EC50 [2]
"CCCCc1nc2c(N)nc3cc(CCCN4CCN(CCCOCCOCCOCCOCCOCCOCCOCCOCCOCCOCCOCCOCCOCCOCCOCCOCCOCCOCCOCCOCCOCCOCCOCCOCCNC(=O)O[C@H]5CC[C@@]6(C)C(=CC[C@H]7[C@@H]8CC[C@H]([C@H](C)CCCC(C)C)[C@@]8(C)CC[C@@H]76)C5)CC4)ccc3c2n1CC(C)(CO)CO [Compound 16, (20R)-cholest-5-en-3beta-yl {75-[4-(3-{4-amino-2-butyl-1-[3-hydroxy-2-(hydroxymethyl)-2-methylpropyl]-1H-imidazo[4,5-c]quinolin-7-yl}propyl)piperazin-1-yl]-3,6,9,12,15,18,21,24,27,30,33,36,39,42,45,48,51,54,57,60,63,66,69,72-tetracosaoxapentaheptacontan-1-yl}carbamate]",278 nM,> 25000 nM
"CCCCc1nc2c(N)nc3cc(CCCN4CCN(CCCOCCOCCNC(=O)O[C@H]5CC[C@@]6(C)C(=CC[C@H]7[C@@H]8CC[C@H]([C@H](C)CCCC(C)C)[C@@]8(C)CC[C@@H]76)C5)CC4)ccc3c2n1CC(C)(CO)CO [Compound 18, (20R)-cholest-5-en-3beta-yl [2-(2-{3-[4-(3-{4-amino-2-butyl-1-[3-hydroxy-2-(hydroxymethyl)-2-methylpropyl]-1H-imidazo[4,5-c]quinolin-7-yl}propyl)piperazin-1-yl]propoxy}ethoxy)ethyl]carbamate]",288 nM,9900 nM
"CCCCc1nc2c(N)nc3cc(CCCN4CCN(C(=O)CCOCCOCCOCCOCCOCCOCCOCCOCCNC(=O)O[C@H]5CC[C@@]6(C)C(=CC[C@H]7[C@@H]8CC[C@H]([C@H](C)CCCC(C)C)[C@@]8(C)CC[C@@H]76)C5)CC4)ccc3c2n1CC(C)(CO)CO [Compound 19, (20R)-cholest-5-en-3beta-yl {27-[4-(3-{4-amino-2-butyl-1-[3-hydroxy-2-(hydroxymethyl)-2-methylpropyl]-1H-imidazo[4,5-c]quinolin-7-yl}propyl)piperazin-1-yl]-27-oxo-3,6,9,12,15,18,21,24-octaoxaheptacosan-1-yl}carbamate]",362 nM,20200 nM

# More lines, in order of falling EC50 [1], values ahead:
EC50 [1],EC50 [2],Compound
443 nM,21800 nM,"CCCCc1nc2c(N)nc3cc(CCCN4CCN(C(=O)CCOCCOCCOCCOCCOCCOCCOCCOCCOCCOCCOCCOCCNC(=O)O[C@H]5CC[C@@]6(C)C(=CC[C@H]7[C@@H]8CC[C@H]([C@H](C)CCCC(C)C)[C@@]8(C)CC[C@@H]76)C5)CC4)ccc3c2n1CC(C)(CO)CO [Compound 20, (20R)-cholest-5-en-3beta-yl {39-[4-(3-{4-amino-2-butyl-1-[3-hydroxy-2-(hydroxymethyl)-2-methylpropyl]-1H-imidazo[4,5-c]quinolin-7-yl}propyl)piperazin-1-yl]-39-oxo-3,6,9,12,15,18,21,24,27,30,33,36-dodecaoxanonatriacontan-1-yl}carbamate]"
282 nM,2610 nM,"CCCCc1nc2c(N)nc3cc(CCCN4CCN(CCCOCCOCCOCCOCCOCCOCCOCCOCCOCCOCCOCCOCCOCCOCCOCCOCCOCCOCCOCCOCCOCCOCCOCCOCCNC(=O)CCOCCOCCOCCOCCNC(=O)O[C@H]5CC[C@@]6(C)C(=CC[C@H]7[C@@H]8CC[C@H]([C@H](C)CCCC(C)C)[C@@]8(C)CC[C@@H]76)C5)CC4)ccc3c2n1CC(C)(CO)CO [Compound 17, (3beta)-cholest-5-en-3-yl {91-[4-(3-{4-amino-2-butyl-1-[3-hydroxy-2-(hydroxymethyl)-2-methylpropyl]-1H-imidazo[4,5-c]quinolin-7-yl}propyl)piperazin-1-yl]-15-oxo-3,6,9,12,19,22,25,28,31,34,37,40,43,46,49,52,55,58,61,64,67,70,73,76,79,82,85,88-octacosaoxa-16-azahennonacont-1-yl}carbamate]"
